{"source": "patent US10675286B2", "about": "“Heterocyclic compounds and uses thereof” (Infinity Pharmaceuticals, Inc., priority 2014, dated 2020)", "key": {"[1]": {"system": "haematological malignancies", "conditions": "cited from earlier work"}, "PI3K γ": {"target": "PI3K γ (Homo sapiens (Human), UniProt P48736)", "sequence (P48736 whole entry, canonical isoform)": "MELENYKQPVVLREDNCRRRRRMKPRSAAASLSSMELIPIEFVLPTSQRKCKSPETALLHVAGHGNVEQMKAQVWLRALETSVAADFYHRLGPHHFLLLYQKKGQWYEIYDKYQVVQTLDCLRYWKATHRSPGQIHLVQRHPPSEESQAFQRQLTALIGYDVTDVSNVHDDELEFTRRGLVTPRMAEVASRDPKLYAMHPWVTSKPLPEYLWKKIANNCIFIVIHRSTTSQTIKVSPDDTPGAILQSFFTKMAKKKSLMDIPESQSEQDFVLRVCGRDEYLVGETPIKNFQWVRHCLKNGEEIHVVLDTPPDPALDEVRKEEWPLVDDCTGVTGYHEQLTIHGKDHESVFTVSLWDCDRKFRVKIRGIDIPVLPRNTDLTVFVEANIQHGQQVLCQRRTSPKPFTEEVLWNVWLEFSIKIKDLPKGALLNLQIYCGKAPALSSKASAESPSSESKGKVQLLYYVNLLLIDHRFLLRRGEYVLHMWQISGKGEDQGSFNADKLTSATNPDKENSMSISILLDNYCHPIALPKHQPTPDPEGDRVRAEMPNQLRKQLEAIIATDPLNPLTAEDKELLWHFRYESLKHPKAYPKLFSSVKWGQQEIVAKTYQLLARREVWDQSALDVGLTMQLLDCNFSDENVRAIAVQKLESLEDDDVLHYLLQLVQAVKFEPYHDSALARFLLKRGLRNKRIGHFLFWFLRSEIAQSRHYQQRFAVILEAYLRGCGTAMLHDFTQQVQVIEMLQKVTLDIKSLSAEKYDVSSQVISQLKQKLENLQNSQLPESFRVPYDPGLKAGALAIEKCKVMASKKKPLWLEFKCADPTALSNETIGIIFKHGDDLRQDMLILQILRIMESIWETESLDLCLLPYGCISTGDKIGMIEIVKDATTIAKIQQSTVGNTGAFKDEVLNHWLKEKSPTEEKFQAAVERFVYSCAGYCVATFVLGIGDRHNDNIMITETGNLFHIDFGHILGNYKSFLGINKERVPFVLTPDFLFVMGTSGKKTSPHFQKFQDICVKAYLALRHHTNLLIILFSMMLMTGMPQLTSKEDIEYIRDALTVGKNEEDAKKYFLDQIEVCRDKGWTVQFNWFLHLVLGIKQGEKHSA", "test": "PI3-Kinase Promega ADP-Glo Max assay, γ isoform", "assay_type": "biochemical", "protocol": "Promega ADP-Glo Max assay kit (Cat. No. V7002) was utilized to determine IC50 values for α, β, δ and γ isoforms of human Class I PI3 kinases (Millipore). […] Reactions were incubated at room temperature for 2 hours followed by addition of 25 uL of stop solution. After a 40-minute incubation at room temperature, 50 uL of Promega detection mix was added followed by incubation for 1 hour at room temperature. Plates were then read on Envision plate reader in luminescence mode. Data was converted to % inhibition using the following equation below:\n[formula] where S is the sample luminescence, Pos is a positive control without added PI3K, Neg is the negative control without added compound. Data was then plotted as % inhibition vs compound concentration."}, "PI3K-δ": {"target": "PI3K-δ (Homo sapiens (Human), UniProt O00329)", "sequence (O00329 whole entry)": "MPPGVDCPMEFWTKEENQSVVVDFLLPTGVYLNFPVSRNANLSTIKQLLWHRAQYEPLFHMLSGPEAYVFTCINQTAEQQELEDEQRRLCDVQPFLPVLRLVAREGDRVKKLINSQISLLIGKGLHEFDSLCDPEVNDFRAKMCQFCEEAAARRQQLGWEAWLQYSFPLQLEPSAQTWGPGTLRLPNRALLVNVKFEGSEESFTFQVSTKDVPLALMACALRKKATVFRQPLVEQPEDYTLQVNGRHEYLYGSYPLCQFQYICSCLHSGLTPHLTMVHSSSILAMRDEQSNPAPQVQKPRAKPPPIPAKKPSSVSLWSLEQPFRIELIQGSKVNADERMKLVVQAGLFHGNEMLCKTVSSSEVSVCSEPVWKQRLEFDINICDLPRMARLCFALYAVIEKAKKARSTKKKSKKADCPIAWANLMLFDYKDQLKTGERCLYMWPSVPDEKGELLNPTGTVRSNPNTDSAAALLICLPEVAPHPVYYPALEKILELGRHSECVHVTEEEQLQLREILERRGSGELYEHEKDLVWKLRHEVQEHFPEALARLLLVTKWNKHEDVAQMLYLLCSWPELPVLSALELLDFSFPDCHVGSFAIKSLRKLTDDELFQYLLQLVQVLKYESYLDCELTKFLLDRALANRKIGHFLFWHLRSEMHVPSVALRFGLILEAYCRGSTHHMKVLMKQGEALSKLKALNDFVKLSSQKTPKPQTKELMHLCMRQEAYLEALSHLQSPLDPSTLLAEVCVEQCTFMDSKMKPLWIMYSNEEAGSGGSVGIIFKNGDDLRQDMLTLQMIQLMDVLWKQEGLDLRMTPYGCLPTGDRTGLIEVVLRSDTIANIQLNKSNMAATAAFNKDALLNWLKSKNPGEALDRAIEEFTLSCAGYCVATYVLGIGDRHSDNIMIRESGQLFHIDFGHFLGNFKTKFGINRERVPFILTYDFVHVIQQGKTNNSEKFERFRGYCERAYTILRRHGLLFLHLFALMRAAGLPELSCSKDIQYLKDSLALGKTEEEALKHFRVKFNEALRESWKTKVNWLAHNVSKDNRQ", "sequence (P27986 whole entry partner)": "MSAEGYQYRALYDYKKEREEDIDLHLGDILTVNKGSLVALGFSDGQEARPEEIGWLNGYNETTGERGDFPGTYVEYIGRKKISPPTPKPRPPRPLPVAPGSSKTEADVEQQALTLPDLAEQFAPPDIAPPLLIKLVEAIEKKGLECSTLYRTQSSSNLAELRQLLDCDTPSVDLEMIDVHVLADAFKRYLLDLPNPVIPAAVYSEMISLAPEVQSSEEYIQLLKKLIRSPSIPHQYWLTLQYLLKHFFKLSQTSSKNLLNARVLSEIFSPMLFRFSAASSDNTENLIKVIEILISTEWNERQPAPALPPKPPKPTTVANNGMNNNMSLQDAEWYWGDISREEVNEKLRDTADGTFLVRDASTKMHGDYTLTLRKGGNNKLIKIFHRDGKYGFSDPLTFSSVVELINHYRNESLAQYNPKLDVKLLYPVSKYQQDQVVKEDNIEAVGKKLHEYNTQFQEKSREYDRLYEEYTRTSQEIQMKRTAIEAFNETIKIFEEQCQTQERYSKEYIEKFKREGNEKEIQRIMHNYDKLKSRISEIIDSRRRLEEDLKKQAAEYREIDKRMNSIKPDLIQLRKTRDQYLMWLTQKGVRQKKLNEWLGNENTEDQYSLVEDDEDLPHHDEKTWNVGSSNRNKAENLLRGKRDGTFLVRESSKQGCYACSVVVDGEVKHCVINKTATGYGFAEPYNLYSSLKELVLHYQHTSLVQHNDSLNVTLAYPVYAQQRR", "test": "RAJI p110 δ assay (phospho-AKT in anti-human IgM stimulated RAJI cells)", "assay_type": "cell-based", "protocol": "Reduction of phospho-AKT is indicative of compounds that may inhibit B-cell proliferation and function in certain diseases.\nCertain compounds provided herein were tested in RAJI cell model using procedures as described above."}, "PI3K-γ": {"target": "PI3K-γ (Mus musculus (Mouse), UniProt Q9JHG7)", "sequence (Q9JHG7 whole entry)": "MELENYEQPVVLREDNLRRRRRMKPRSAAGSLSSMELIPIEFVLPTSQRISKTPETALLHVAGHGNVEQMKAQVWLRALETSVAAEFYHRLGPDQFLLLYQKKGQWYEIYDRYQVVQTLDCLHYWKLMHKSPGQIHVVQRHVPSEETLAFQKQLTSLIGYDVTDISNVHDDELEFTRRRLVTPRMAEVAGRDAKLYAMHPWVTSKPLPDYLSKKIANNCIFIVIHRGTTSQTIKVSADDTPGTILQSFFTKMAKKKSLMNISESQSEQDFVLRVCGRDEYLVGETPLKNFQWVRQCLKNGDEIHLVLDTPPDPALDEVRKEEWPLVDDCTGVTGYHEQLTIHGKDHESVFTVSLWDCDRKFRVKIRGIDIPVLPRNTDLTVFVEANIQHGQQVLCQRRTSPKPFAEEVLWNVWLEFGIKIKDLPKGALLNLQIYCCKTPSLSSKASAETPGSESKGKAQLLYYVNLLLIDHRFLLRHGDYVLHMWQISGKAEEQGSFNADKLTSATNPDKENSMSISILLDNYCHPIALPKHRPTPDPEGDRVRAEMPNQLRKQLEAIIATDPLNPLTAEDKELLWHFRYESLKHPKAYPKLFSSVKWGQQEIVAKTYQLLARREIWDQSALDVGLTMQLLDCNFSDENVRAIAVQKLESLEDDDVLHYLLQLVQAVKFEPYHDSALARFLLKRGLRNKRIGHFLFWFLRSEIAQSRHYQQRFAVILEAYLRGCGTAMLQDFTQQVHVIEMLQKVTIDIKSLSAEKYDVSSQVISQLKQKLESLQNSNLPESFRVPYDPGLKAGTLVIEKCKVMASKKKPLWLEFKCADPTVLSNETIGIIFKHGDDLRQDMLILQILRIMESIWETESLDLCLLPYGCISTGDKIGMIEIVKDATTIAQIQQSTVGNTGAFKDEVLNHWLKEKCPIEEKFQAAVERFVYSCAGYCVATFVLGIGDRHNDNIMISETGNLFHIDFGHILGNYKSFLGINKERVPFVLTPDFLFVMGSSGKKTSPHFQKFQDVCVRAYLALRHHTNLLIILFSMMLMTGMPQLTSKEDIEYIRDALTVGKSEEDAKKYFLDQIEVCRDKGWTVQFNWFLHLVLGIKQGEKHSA", "test": "Raw264.7 p110 γ assay (C5a-mediated phospho-AKT in RAW264.7 macrophages)", "assay_type": "cell-based", "description": "Briefly, serum-starved RAW264.7 cells are stimulated with a known GPCR agonist C5a. […] Cells can be treated with test compounds prior to, simultaneously with, or subsequent to the stimulation by C5a. RAW 264.7 cells respond to the complement component fragment C5a through activation of the C5a receptor, and the C5a receptor activates macrophages and induces cell migration."}, "[2]": {"test": "Pharmacokinetics of Compound 88 in female C57 mice, PO", "assay_type": "in vivo, mouse", "conditions": "for tlast / AUC: female C57 mice; for AUC: mouse, plasma, read-out: AUC0_INF", "experimental": "Animals were weighed daily prior to dosing. […] On subsequent dosing days, the animals' condition was noted prior to dosing; the animals were observed within 4 hours of dosing, and at the end of the day.\nSamples were collected at pre-dose 0.25, 0.5, 1, 2, 4, 6 and 24 h following the first dose on day 1 and pre-dose (trough), 0.25, 0.5, 1, 2, 4, 6 and 24 h following the final dose on day 3. Animals received a single oral dose daily for 3 consecutive days. Blood was collected by retro-orbital bleeding for all time points on day 1. All other blood sampling was collected by a cardiac puncture. Blood was collected into K2EDTA tubes and placed on wet ice. Within 15 min of collection, the sample was centrifuged at 10,000 rpm at 4° C. for 10 min in a bench top centrifuge and the plasma transferred to a new microcentrifuge tube.\nA similar study was carried out using Compound 88. […] Below is a table that details the results for Compound 88: […]"}, "[3]": {"system": "CXCL12 induced p-AKT in bone marrow derived macrophages", "test": "CXCL12-induced p-AKT induction assay in differentiated, polarized macrophages", "assay_type": "cell-based, mouse", "text": "Long bones from young C57B6 mice were harvested and bone marrow was extruded by gentle lavage of the bone marrow cavities with a 28 gauge needle. Red blood cells were removed using red blood cell lysis buffer (Sigma). Bone marrow cells were differentiated to macrophages using MCSF for 6 days (RPMI and 20% FCS) with one media change (with removal of all non-adherent cells) at day 3. Macrophages were polarized into M0 (MCSF), M1 (MCSF, IFNγ, and LPS for 1 day), or M2 (MCSF, IL4 for 2 days).\nPolarized macrophages were lifted with Acutase, and plated at 0.5M cells per well (0.5 ml) in a deep well (2 ml) non adherant plate in polarization media for 1 hour. […] CXCL12 was added, and the cells were mixed on a plate shaker for 2 minutes. 1 ml of 37 degree FACS Lyse/fix buffer (BD bioscience) was added and the plate was mixed for 1 minute. The plates were spun and decanted and frozen at −80° C. Phospho AKT staining with anti Phospho AKT 473 PERCP labeled (Cell Signaling Technologies) was performed and measured by flow cytometry. Total cell MFI was used to calculate the effect of tested compound on CXCL12 induction of phospho AKT."}, "[4]": {"system": "T cell activation (IFN-γ in response to ConA)", "test": "T cell activation in human whole blood (Con-A, IFN-γ readout)", "assay_type": "cell-based", "conditions": "24 hours, read-out: IC50, T cell activation as measured by inhibition of IFN-γ", "experimental": "The purpose of this study is to evaluate the effect of various antigens (Con-A) in T cell activation in Human Whole Blood vs. 1:1 Diluted Blood using test compounds at 24 hour time-point.\nT-cell Activation Media includes RPMI-1000 ml, MEM NEAA-10 ml, Sodium Pyruvate (100 mM)-10 ml, Pen Strep-10 ml, 2-Mercaptoethanol-1 ml, and FBS-100 ml. 100 ul of whole blood were plated in 96 well plate. Used only the 60 inside wells and filled the outside with media or PBS. Diluted human whole blood with 5% Serum RPMI 1640 1:1 and plate 100 ul in 96 well plate. Used only the 60 inside wells and filled the outside with media or PBS.\nThe compound was diluted using DMSO (Sigma hybridmax). For 1000 nM highest concentration starting from a 10 mM stock, added 300 ul of DMSO into deep well plates. To the highest concentration add 10 ul of 10 mM compound stock.\nA media plate was prepared from DMSO plate by taking 100 ul and go into 900 ul media in new deep well plate, taping plate, and putting on mixer for 5 minutes.\nThe rested cell plates were removed from incubator. Added 12 uL of diluted compound from media plate (final DMSO is 1%), and incubated for 45 minutes.\nCon-A was prepared as follows: 200 ul stock into 1 ml Media, 100 ul of that into 1 ml Media, 100 ul of that into 1 ml Media. […] This was analyzed after 24 Hours.\n10× stock in media, added 12 ul per well. […] Analyzed with multiplex elisa from MSD. […]"}, "[5]": {"system": "LPS-induced neutrophil influx into BALF", "test": "LPS-induced neutrophilia in rats, oral administration", "assay_type": "in vivo", "conditions": "rat, p.o., 4 hours post-LPS challenge; dose dependent", "experimental": "(§1) This study also includes assessment of the exposure to the compounds in plasma and lung tissues.\n(§2) Ref C is budesonide p.o. The compound was administered p.o. and about 1 hour later, LPS was administered intra-tracheally and plasma was collected. After about 5 hours, plasma and bronchoalveolar lavage samples were collected."}, "[6]": {"system": "IL-8 induced neutrophil migration", "test": "IL-8 driven murine air pouch model", "assay_type": "in vivo", "conditions": "mouse; Compound BB 0.1, 0.3, 1, 3 mg/kg; Compound AA 10, 25, about 50 mg/kg; vs vehicle", "text": "IL-8 chemoattracts and activates neutrophils."}, "[7]": {"test": "Oral PK in the rat LPS studies (free plasma concentration)", "assay_type": "in vivo", "conditions": "for Free Plasma Conc (nM): p.o. 0.2 mg/kg", "experimental": "as §1, §2"}, "[8]": {"system": "CXCL12-induced T cell migration", "test": "CXCL12-induced T-cell migration in CLL PBMCs (transwell)", "assay_type": "cell-based", "conditions": "Homo sapiens", "experimental": "Specifically, the material used were media (RPMI+0.5% Fetal Bovine Serum+Pen/Strep), total CLL PBMCs (AllCells), CoStar 24-transwell plates ([…]) #3421, BD Cytofix Fixation Buffer (#554655), BD FBS Stain Buffer (BD Biosciences, 554656), Deep 96-well plate (Axygen, P-2ML-SQ-C), rhCXCL12 (R&D, 350-NS-050), CD-19 APC Cy7 (BD #348794 1:20), CD3-PerCPCy5.5 (BD #560835, 1:20), CD5-PE (Biolegend #300608, 1:5), CD4-FITC (BD #561842, 1:20), and CD8-APC (BD #561953, 1:20).\nTotal CLL human PBMCs were preincubated with Compound AA or BB in media for 45 minutes at 37° C. […] After the 45 minutes of compound preincubation, 500-750K CLL PBMCs were placed in the upper chamber of the transwell insert in a total volume of 100 uL. The cells were allowed to migrate for 2-4 hours at 37° C. The inserts were removed, and 550 uL media from lower chamber were transferred into a deep 96-well plate. The cells were spun at 1280 rpm for 5 minutes and flick media. The cells were resuspended in 400 uL BD Cytofixation buffer and incubated at RT for 10 minutes. 1 mL BD FBS stain buffer was added. The cells were spun at 1280 rpm and fixation buffer was disposed. The cells were resuspended in 100 uL of CD3,4,8,5,19 antibody cocktail made up in BD FBS stain buffer, which was then incubated at room temperature in the dark for 30-60 minutes. 1 mL BD FBS stain buffer was added to each well, which was then spun and flicked. The cells were resuspended in 150 uL FBS stain buffer and transferred to FACS tubes already containing 150 uL FBS stain buffer. Each sample was read on the FACS for 25 seconds. Gate on CD3, 4, 8 and CD19/5 subpopulations individually and calculate average migration index from triplicate samples. See e.g., Borge et al., haematologica 2010, 95(5): 768-775; de Rooij et al., Blood 2012, 119: 2590-2594."}, "human T cells": {"system": "human T cells", "test": "Concanavalin A-induced model for activation of human T cells (IFN-γ)", "assay_type": "cell-based"}, "LLC tumor brei": {"system": "LLC tumor brei", "test": "LLC tumor brei model, Compound BB with or without cyclophosphamide", "assay_type": "in vivo, mouse", "conditions": "Compound BB 15 mg/kg QD PO, cyclophosphamide 50 mg/kg EOD IP", "protocol": "In this experiment, treatment began when tumors reached approx. 150 mm^3—around day 12. Caliper and xenogen images were monitored. Treatment groups n=13-15/group. […] Samples for FACs analysis were collected on day 23 post implant. Using FACS, cells were assayed for the level of CD11b and Gr-1."}}, "note": "Read-outs that look alike come from different tables or passages of the source.", "data": [{"smiles": "CC[C@H](Nc1ncnc2[nH]cnc12)c1nc2cccc(F)c2c(=O)n1-c1ccccc1", "note": "[CAL-101]", "values": [{"measurement": "clinical activity in CLL", "setting": "[1]; phase 1 trial, patients with poor prognostic characteristics", "result": "showed activity"}, {"measurement": "clinical activity in mantle cell lymphoma and refractory non Hodgkin's lymphoma", "setting": "[1]; single agent", "result": "active"}]}, {"smiles": "C[C@H](NC(=O)c1c(N)nn2cccnc12)c1cc2cccc(C#Cc3ccn[nH]3)c2c(=O)n1-c1ccccc1", "note": "[Compound 43]", "values": [{"measurement": "PI3K δ/PI3K γ IC50 (selectivity)", "setting": "PI3K γ", "result": "Y (Y = 50 to <850)"}, {"measurement": "IC50", "setting": "PI3K-δ", "result": "0.1 to 0.5", "unit": "µM"}, {"measurement": "RAJI δ/Raw264.7 γ IC50 (selectivity)", "setting": "PI3K-γ", "result": "X (X = 10 to <50)"}, {"measurement": "IC50", "setting": "PI3K-γ; phospho-AKT", "result": "0.001 to 0.05", "unit": "µM"}]}, {"smiles": "Cc1c(C#Cc2cccc3nc([C@H](C)NC(=O)c4c(N)nn5cccnc45)n(-c4ccccc4)c(=O)c23)cnn1C", "note": "[Compound 88, (S)-2-amino-N-(1-(5-((1,5-dimethyl-1H-pyrazol-4-yl)ethynyl)-4-oxo-3-phenyl-3,4-dihydroquinazolin-2-yl)ethyl)pyrazolo[1,5-a]pyrimidine-3-carboxamide]", "values": [{"measurement": "tlast", "setting": "[2]; 2 mg/kg PO NMP", "result": 8, "unit": "h"}, {"measurement": "tlast", "setting": "[2]; 7.5 mg/kg PO NMP", "result": 24, "unit": "h"}, {"measurement": "tlast", "setting": "[2]; 15 mg/kg PO NMP", "result": 24, "unit": "h"}, {"measurement": "Stability in serum", "setting": "[2]; female C57 mice, 2, 7.5 or 15 mg/kg PO", "result": "good stability in serum"}, {"measurement": "AUC", "setting": "[2]; 7.5 mg/kg PO NMP", "result": 20.7, "unit": "µg·h/mL"}, {"measurement": "AUC", "setting": "[2]; 15 mg/kg PO NMP", "result": 81.2, "unit": "µg·h/mL"}]}, {"smiles": "CC(C)n1c([C@H](C)Nc2ncnc(N)c2C#N)cc2cccc(-c3ccc(=O)n(C)c3)c2c1=O", "note": "[Compound AA, reference compound]", "values": [{"measurement": "IC50, CXCL12 induced p-AKT", "setting": "[3]; differentiated and M1 polarized macrophage", "result": "did not significantly inhibit"}, {"measurement": "IC50, CXCL12 induced p-AKT", "setting": "[3]; differentiated and M2 polarized macrophage", "result": "did not significantly inhibit"}, {"measurement": "IC50", "setting": "[4]", "result": 0.003, "unit": "µM"}, {"measurement": "Neutrophil in bronchoalveolar lavage fluid (BALF)", "setting": "[5]", "result": "reduced neutrophil in bronchoalveolar lavage fluid (BALF)"}, {"measurement": "IL-8 induced neutrophil migration into air pouch", "setting": "[6]", "result": "does not inhibit IL-8 induced neutrophil migration"}, {"measurement": "Free plasma levels relative to IC90 of the target isoform", "setting": "[7]; highest dose levels, gamma for Compound BB, delta for Compound AA", "result": "equal or greater than the IC90"}, {"measurement": "Free Plasma Conc (nM)", "setting": "[7]; 1.5 h (time of LPS challenge)", "result": "BLQ"}, {"measurement": "Free Plasma Conc (nM)", "setting": "[7]; […] (about 4 hours post LPS challenge)", "result": "BLQ"}, {"measurement": "EC50", "setting": "[8]; T-cell subset CD3+, read-out: EC50 (nM), CXCL12 induced T-cell migration", "result": "630 ± 71", "unit": "nM"}, {"measurement": "EC50", "setting": "[8]; T-cell subset CD4+, read-out: EC50 (nM), CXCL12 induced T-cell migration", "result": "726 ± 230", "unit": "nM"}, {"measurement": "EC50", "setting": "[8]; T-cell subset CD8+, read-out: EC50 (nM), CXCL12 induced T-cell migration", "result": "423 ± 290", "unit": "nM"}, {"measurement": "EC50", "setting": "[8]; read-out: EC50, inhibition of CXCL12-induced CD3+ T cell migration (FIG. 8)", "result": 694, "unit": "nM"}, {"measurement": "inhibition of IFN-γ", "setting": "human T cells", "result": "highly selective inhibitor"}]}, {"smiles": "O=P1(N(CCCl)CCCl)NCCCO1", "note": "(centres unmarked) [cyclophosphamide, reference compound]", "values": [{"measurement": "Tumor growth (FIG. 48)", "setting": "LLC tumor brei", "result": "reduced tumor growth by about the same amount"}]}]}
